Assay results from patent publication US20210402016A1, “RADIOLABELED BOMBESIN-DERIVED COMPOUNDS FOR IN VIVO IMAGING OF GASTRIN-RELEASING PEPTIDE RECEPTOR (GRPR) AND TREATMENT OF GRPR-RELATED DISORDERS” (Provincial Health Services Authority, priority 2018, published 2021).
Where two headings read alike, the source gives them in different places.

Assay: Biodistribution in PC-3 tumor-bearing NRG mice (Example 1)
Type: in vivo
Settings: male, NRG (NOD.Cg-Rag1tm1Mom Il2rgtm1Wjl/SzJ), mouse, iv, 1.84 MBq, total radioactivity; for tissue uptake at 0.5 h: 30 min p.i.; for tissue uptake at 1 h: 60 min p.i.; for tissue uptake at 2 h: 120 min p.i.
Experimental: The mice were sacrificed by CO2 inhalation at 30 min, 1 h, and 2 h p.i. Blood was collected by cardiac puncture. Organs/tissues were harvested, rinsed with PBS, blotted dry, and weighed. The activity in tissues was assayed by gamma counter and expressed as the percentage injected dose per gram of tissue (% ID/g).

[1] = PC-3 tumor, read-out: Biodistribution PC-3 Tumor, Mean
[2] = adrenals, read-out: Biodistribution Adrenals, Mean
[3] = bone, read-out: Biodistribution Bone, Mean
[4] = brain, read-out: Biodistribution Brain, Mean
[5] = fat, read-out: Biodistribution Fat, Mean
[6] = intestine, read-out: Biodistribution Intestine, Mean
[7] = kidney, read-out: Biodistribution Kidney, Mean
[8] = liver, read-out: Biodistribution Liver, Mean
[9] = lung, read-out: Biodistribution Lung, Mean
[10] = muscle, read-out: Biodistribution Muscle, Mean
[11] = pancreas, read-out: Biodistribution Pancreas, Mean
[12] = seminal glands, read-out: Biodistribution Seminal glands, Mean
[13] = spleen, read-out: Biodistribution Spleen, Mean
[14] = testes, read-out: Biodistribution Testes, Mean
[15] = whole blood, read-out: Biodistribution Blood, Mean

SMILES: CC(C)C[C@@H](CN1CCC[C@H]1C(N)=O)NC(=O)[C@H](Cc1c[nH]cn1)NC(=O)CNC(=O)[C@@H](NC(=O)[C@H](C)NC(=O)[C@H](Cc1c[nH]c2ccccc12)NC(=O)[C@H](CCC(N)=O)NC(=O)[C@@H](Cc1ccccc1)NC(=O)COCC(=O)Nc1ccc(CNC(=O)CN2CCN(CC(=O)O)CCN(CC(=O)O)CCN(CC(=O)O)CC2)cc1)C(C)C [^68Ga-ProBOMB1, metal not drawn]
- tissue uptake at 0.5 h [1]: 4.62 %ID/g
- tissue uptake at 1 h [1]: 8.17 %ID/g
- tissue uptake at 2 h [1]: 8.31 %ID/g
- tissue uptake at 0.5 h [2]: 0.95 %ID/g
- tissue uptake at 1 h [2]: 0.65 %ID/g
- tissue uptake at 2 h [2]: 1.23 %ID/g
- tissue uptake at 0.5 h [3]: 0.22 %ID/g
- tissue uptake at 1 h [3]: 0.26 %ID/g
- tissue uptake at 2 h [3]: 0.39 %ID/g
- tissue uptake at 0.5 h [4]: 0.02 %ID/g
- tissue uptake at 1 h [4]: 0.02 %ID/g
- tissue uptake at 2 h [4]: 0.03 %ID/g
- tissue uptake at 0.5 h [5]: 0.17 %ID/g
- tissue uptake at 1 h [5]: 0.06 %ID/g
- tissue uptake at 2 h [5]: 0.07 %ID/g
- tissue uptake at 0.5 h [6]: 2.63 %ID/g
- tissue uptake at 1 h [6]: 2.47 %ID/g
- tissue uptake at 2 h [6]: 1.68 %ID/g
- tissue uptake at 0.5 h [7]: 2.83 %ID/g
- tissue uptake at 1 h [7]: 1.4 %ID/g
- tissue uptake at 2 h [7]: 0.78 %ID/g
- tissue uptake at 0.5 h [8]: 1.93 %ID/g
- tissue uptake at 1 h [8]: 1.21 %ID/g
- tissue uptake at 2 h [8]: 0.75 %ID/g
- tissue uptake at 0.5 h [9]: 0.54 %ID/g
- tissue uptake at 1 h [9]: 0.35 %ID/g
- tissue uptake at 2 h [9]: 0.25 %ID/g
- tissue uptake at 0.5 h [10]: 0.36 %ID/g
- tissue uptake at 1 h [10]: 0.09 %ID/g
- tissue uptake at 2 h [10]: 0.08 %ID/g
- tissue uptake at 0.5 h [11]: 10.3 %ID/g
- tissue uptake at 1 h [11]: 4.68 %ID/g
- tissue uptake at 2 h [11]: 1.55 %ID/g
- tissue uptake at 0.5 h [12]: 0.17 %ID/g
- tissue uptake at 1 h [12]: 1.08 %ID/g
- tissue uptake at 2 h [12]: 0.43 %ID/g
- tissue uptake at 0.5 h [13]: 0.5 %ID/g
- tissue uptake at 1 h [13]: 0.44 %ID/g
- tissue uptake at 2 h [13]: 0.31 %ID/g
- tissue uptake at 0.5 h [14]: 0.31 %ID/g
- tissue uptake at 1 h [14]: 0.11 %ID/g
- tissue uptake at 2 h [14]: 0.09 %ID/g
- tissue uptake at 0.5 h [15]: 1.06 %ID/g
- tissue uptake at 1 h [15]: 0.4 %ID/g
- tissue uptake at 2 h [15]: 0.13 %ID/g
